Earlier results, collected in US20060009468A1, “Method for treatment of cancer” (priority 2004, published 2006).

What was measured:
MIA PaCa-2 cells = details: after 72 hrs of exposure
PANC-1 cells = details: after 72 hrs of exposure

N=C(N)NOCC[C@H](N)C(=O)O [L-canavanine, L-Canavanine]
increase of the percentage of cells in the radiosensitive G2/M phase of the cell cycle, compared to untreated cells (MIA PaCa-2 cells): 4 fold | increase of the percentage of cells in the radiosensitive G2/M phase of the cell cycle, compared to untreated cells (PANC-1 cells): 6 fold
